Laboratory results published in US11370776B2, “Sulfonylureas and sulfonylthioureas as NLRP3 inhibitors” (Inflazome Limited, priority 2017, dated 2022).
Where a name gives a salt, the structure may show the parent alone.

Columns and labels:
NLRP3 [1] = target: T1, NLRP3 (Homo sapiens, UniProt Q96P20); experiment: Human whole blood IL1β release assay; format: cell-based; parameters: Human whole blood in Li-heparin tubes was obtained from healthy donors; from tissue; host or cells: human whole blood from healthy donors, LPS-primed, nigericin-stimulated; settings: human whole blood, 1 μg/ml LPS, nigericin 10 μM, IL-1β release; read-out: HWB IC50
Method: Human Whole Blood IL1β Release Assay
For systemic delivery, the ability to inhibit NLRP3 when the compounds are present within the bloodstream is of great importance. For this reason, the NLRP3 inhibitory activity of a number of compounds in human whole blood was investigated in accordance with the following protocol.
Human whole blood in Li-heparin tubes was obtained from healthy donors from a volunteer donor panel. • 1. […] Incubate for 3 hrs at 37° C., 5% CO2 • 4. Add 10 μl Nigericin (Sigma # N7143) (10 μM FAC) to all wells • 5. Incubate for 1 hr at 37° C., 5% CO2 • 6. At the end of the incubation period, spin plates at 300×g for 5 mins to pellet cells and remove 20 μl of supernatant and add to 96-well v-bottom plates for IL-1β analysis (note: these plates containing the supernatants can be stored at −80° C. to be analysed at a later date) • 7. IL-1β was measured according to the manufacturer protocol (Perkin Elmer-AlphaLisa IL-1 Kit AL220E-5000) • 8. IC50 data is fitted to a non-linear regression equation (log inhibitor vs response-variable slope 4-parameters)

NLRP3 [2] = target: T1, NLRP3; experiment: THP-1 cells pyroptosis assay; format: cell-based; parameters: Seed THP-1 cells (25,000 cells/well) containing 1.0 μg/ml LPS; host or cells: THP-1 cells, LPS-primed, nigericin-stimulated; settings: for IC50: THP-1 cells, 1.0 μg/ml LPS, nigericin 5 μM, pyroptosis read with resazurin, read-out: THP IC50
Method: The cells were routinely passaged and grown to confluency (˜10^6 cells/ml). On the day of the experiment, THP-1 cells were harvested and resuspended into RPMI medium (without FBS). The cells were then counted and viability (>90%) checked by Trypan blue (Sigma # T8154). […] To this diluted cell solution was added LPS (Sigma # L4524) to give a 1 μg/ml Final Assay Concentration (FAC). 40 μl of the final preparation was aliquoted into each well of a 96-well plate. The plate thus prepared was used for compound screening. THP-1 Cells Pyroptosis Assay The following method step-by-step assay was followed for compound screening. • 1. […] Add 5 μl nigericin (Sigma # N7143) (FAC 5 μM) to all wells • 5. […] At the end of the incubation period, spin plates at 300×g for 3 mins and remove supernatant • 7. Then add 50 μl of resazurin (Sigma # R7017) (FAC 100 μM resazurin in RPMI medium without FBS) and incubate plates for a further 1-2 hrs at 37° C. and 5% CO2 • 8. […] IC50 data is fitted to a non-linear regression equation (log inhibitor vs response-variable slope 4-parameters) [table]

T1 sequence (Q96P20 whole entry): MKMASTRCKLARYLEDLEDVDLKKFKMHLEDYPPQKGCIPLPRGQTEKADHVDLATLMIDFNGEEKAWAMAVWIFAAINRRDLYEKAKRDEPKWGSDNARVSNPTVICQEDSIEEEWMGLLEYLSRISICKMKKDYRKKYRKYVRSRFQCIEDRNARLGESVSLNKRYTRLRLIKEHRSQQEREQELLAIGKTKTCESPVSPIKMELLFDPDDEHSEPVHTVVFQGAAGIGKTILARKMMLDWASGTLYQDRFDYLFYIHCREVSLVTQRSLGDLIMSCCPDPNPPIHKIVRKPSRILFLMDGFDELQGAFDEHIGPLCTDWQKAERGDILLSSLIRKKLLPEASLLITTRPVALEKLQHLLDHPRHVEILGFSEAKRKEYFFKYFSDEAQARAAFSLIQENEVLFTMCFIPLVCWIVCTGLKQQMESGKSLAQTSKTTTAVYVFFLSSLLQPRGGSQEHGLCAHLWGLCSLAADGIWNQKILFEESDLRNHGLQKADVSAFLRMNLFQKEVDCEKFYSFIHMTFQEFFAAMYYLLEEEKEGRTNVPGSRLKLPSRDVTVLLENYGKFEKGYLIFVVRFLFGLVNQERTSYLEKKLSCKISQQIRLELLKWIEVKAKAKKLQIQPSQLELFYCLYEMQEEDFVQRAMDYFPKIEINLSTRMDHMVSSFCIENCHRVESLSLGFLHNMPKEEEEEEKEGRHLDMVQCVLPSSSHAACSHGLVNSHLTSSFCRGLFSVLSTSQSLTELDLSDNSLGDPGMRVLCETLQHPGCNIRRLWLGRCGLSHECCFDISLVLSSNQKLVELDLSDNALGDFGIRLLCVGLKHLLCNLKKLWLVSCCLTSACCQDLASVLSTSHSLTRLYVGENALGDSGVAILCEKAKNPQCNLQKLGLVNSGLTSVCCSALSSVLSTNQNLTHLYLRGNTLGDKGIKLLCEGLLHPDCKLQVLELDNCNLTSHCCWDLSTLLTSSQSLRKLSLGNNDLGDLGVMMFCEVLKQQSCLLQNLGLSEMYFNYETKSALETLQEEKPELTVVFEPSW

Row | Structure (SMILES) | IC50 (NLRP3 [1]) [µM] | IC50 (NLRP3 [2]) [µM] | NLRP3 inhibitory activity (in words) (NLRP3 [2]; THP-1 pyroptosis assay)
1 | Cc1ccnc(S(=O)(=O)NC(=O)Nc2c3c(cc4c2CCC4)CCC3)n1 [Example 17, N-((1,2,3,5,6,7-Hexahydro-s-indacen-4-yl)carbamoyl)-4-methyl pyrimidine-2-sulfonamide, Potassium Salt] | < 5 | < 1.2 | 
2 | CN(C)c1cnnc(S(=O)(=O)NC(=O)Nc2c(-c3ccncc3)cc(F)c3c2CCC3)c1 [Example 53, 5-(Dimethylamino)-N-((7-fluoro-5-(pyridin-4-yl)-2,3-dihydro-1H-inden-4-yl)carbamoyl) pyridazine-3-sulfonamide] | < 2.5 | < 0.8 | 
3 | CN(C)c1cncc(S(=O)(=O)NC(=O)Nc2c(-c3ccncc3)cc(F)c3c2CCC3)n1 [Example 37, 6-(Dimethylamino)-N-((7-fluoro-5-(pyridin-4-yl)-2,3-dihydro-1H-inden-4-yl)carbamoyl)pyrazine-2-sulfonamide] | < 2.5 | < 0.8 | 
4 | COc1nccnc1S(=O)(=O)NC(=O)Nc1c2c(cc3c1CCC3)CCC2 [Example 8, N-((1,2,3,5,6,7-Hexahydro-s-indacen-4-yl)carbamoyl)-3-methoxypyrazine-2-sulfonamide, Potassium Salt] | < 5 | < 0.8 | 
5 | COc1cc(-c2ccc3c(c2NC(=O)NS(=O)(=O)c2nc(C)cc(C)n2)CCC3)ccn1 [Example 48, N-((5-(2-Methoxypyridin-4-yl)-2,3-dihydro-1H-inden-4-yl)carbamoyl)-4,6-dimethylpyrimidine-2-sulfonamide] | < 2.5 | < 0.8 | highly active
6 | COc1cc(-c2ccc3c(c2NC(=O)NS(=O)(=O)c2ccnc(CN(C)C)c2)CCC3)ccn1 [Example 59, 2-((Dimethylamino)methyl)-N-((5-(2-methoxypyridin-4-yl)-2,3-dihydro-1H-inden-4-yl)carbamoyl)pyridine-4-sulfonamide, sodium salt] | < 2.5 | < 0.8 | 
7 | COc1cc(-c2ccc3c(c2NC(=O)NS(=O)(=O)c2ccc(CN(C)C)nc2)CCC3)ccn1 [Example 58, 6-((Dimethylamino)methyl)-N-((5-(2-methoxypyridin-4-yl)-2,3-dihydro-1H-inden-4-yl)carbamoyl)pyridine-3-sulfonamide] | < 2.5 | < 0.8 | 
8 | CC(C)c1cc(F)cc(-c2ccnc(C#N)c2)c1NC(=O)NS(=O)(=O)c1cc(N(C)C)cnn1 [Example 50, N-((2-(2-Cyanopyridin-4-yl)-4-fluoro-6-isopropylphenyl)carbamoyl)-5-(dimethylamino) pyridazine-3-sulfonamide] | < 2.5 | < 0.8 | 
9 | CN(C)c1cncc(S(=O)(=O)NC(=O)Nc2c3c(cc4c2CCC4)CCC3)n1 [Example 27, 6-(Dimethylamino)-N-((1,2,3,5,6,7-hexahydro-s-indacen-4-yl)carbamoyl)pyrazine-2-sulfonamide, Potassium Salt] | < 7.5 | < 0.8 | 
10 | COc1ncccc1S(=O)(=O)NC(=O)Nc1c2c(cc3c1CCC3)CCC2 [Example 15, N-((1,2,3,5,6,7-Hexahydro-s-indacen-4-yl)carbamoyl)-2-methoxypyridine-3-sulfonamide, Potassium Salt] |  | < 1.2 | 
11 | O=C(Nc1c2c(cc3c1CCC3)CCC2)NS(=O)(=O)c1ccc(Cl)nn1 [Example 11, 6-Chloro-N-((1,2,3,5,6,7-hexahydro-s-indacen-4-yl)carbamoyl) pyridazine-3-sulfonamide, Potassium Salt] |  | < 10 | 
12 | CN(C)CCNc1cnc(S(=O)(=O)NC(=O)Nc2c3c(cc4c2CCC4)CCC3)cn1 [Example 25, 5-((2-(Dimethylamino)ethyl)amino)-N-((1,2,3,5,6,7-hexahydro-s-indacen-4-yl)carbamoyl)pyrazine-2-sulfonamide, potassium Salt] |  | < 0.8 | 
13 | CN(C)c1ccc(S(=O)(=O)NC(=O)Nc2c3c(cc4c2CCC4)CCC3)nn1 [Example 13, 6-(Dimethylamino)-N-((1,2,3,5,6,7-hexahydro-s-indacen-4-yl)carbamoyl)pyridazine-3-sulfonamide, potassium salt] |  | < 1.6 | 
